Measured values published in article PMC6005341, “Identification of “sarsasapogenin-aglyconed” timosaponins as novel Aβ-lowering modulators of amyloid precursor protein processing” (Chemical Science, 2016).

Legend:
[1] = tested on: APP processing in N2A-APPswe cells; assay: Immunoblot of APP processing in N2A-APPswe cells; type: cell-based
From the text: (§1) Reagents: All reagents were of analytical grade (purity > 98%) and were purchased from Sigma-Aldrich Chemical Co. unless otherwise specified. SSG (1) was purchased from Wako Pure Chemical Industries, Ltd. Diosgenin (6), Dioscin (9), Polyphyllin D (10), Timosaponin BI (22) and Timosaponin BII (23) were purchased from Chengdu Must Bio-Technology Co.
(§2) Ltd. Yamogenin (7) was bought from Ambinter c/o Greenpharma while Smilagenin (24) was bought from Steraloids Inc. Substances dissolved in DMSO as stock solutions. Cell culture medium constituents were purchased from Life Technologies, Inc.
(§3) Cell culture: Neuro-2A cells expressing Swedish mutants of APP (N2A-APPswe provided by Prof. Yifan Han, The Hong Kong Polytechnic University)1 was cultured in minimal essential medium with 2 mM glutamine, 2 mM pyruvate and 10% fetal bovine serum. Cells were seeded at 6-well plate at 1×106 cells/mL and grown for two days until confluence. […]
Immunoblot analysis: Cells were washed with phosphate buffered saline and lysed with buffer containing 50 mM Tris-Cl, pH 7.4, 150 mM NaCl, 1% Triton X-100 supplemented with protease inhibitors. Equal amount of proteins (30 µg) was resolved by 16.5% Tris-tricine gels and then transferred to nitrocellulose membrane with 0.2 µm pore size. For detection of secreted Aβ, sAPPα and  sAPPβ, cells were treated with the timosaponins for 8 h in complete medium which were then replaced with medium containing 0.1% FBS. After further incubation of 16 h, 50 µL of the conditioned medium was mixed with SDS sample buffer and resolved accordingly. The membrane was blocked with Tris-buffered saline containing 0.1% Tween 20 and 3% BSA and then incubated with primary antibodies at 4 °C overnight, followed with appropriate secondary antibodies for 2 h. The primary antibodies were: APP c-terminal rabbit antibody (1:5000; Merck Bioscience) for detection of full length APP and APP-CTFs, mouse monoclonal 6E10 (Covance) for secreted Aβ and sAPPα,  mouse monoclonal 6A1 (IBL) for sAPPβswe, ADAM-10 rabbit antibody (Millipore) and BACE1

[2] = tested on: Aβ42 levels in rat primary cortical neuron culture; assay: Aβ42 in conditioned medium of rat primary cortical neuron culture, 5-day incubation; type: cell-based; settings: n = 3
From the text: as §1, §2
as §3, with “confluence. The medium was replaced and the testing compounds were added at indicated concentrations for” for “confluence.”
Primary cortical neurons were prepared from embryonic day 17 Sprague-Dawley rats (Laboratory Animal Unit, The University of Hong Kong). Cerebral cortices were mechanically dissociated in complete medium (MEM with 18 mM glucose; 2 mM L-glutamine; 5% FBS; hormone cocktail, penicillin (50 U/mL), streptomycin (50 μg/mL), and […]). Cells were seeded onto six-well plate (0.5 × 10^6 cells/well) pre-coated with poly-L-lysine. […]
rabbit antibody (Millipore). The immunoreactivities were detected using enhanced chemiluminescence reagents (GE Health care). […]
Aβ ELISA: Aβ concentrations in conditioned medium were assayed using ELISA kits for human Aβ40, human Aβ42 (ultrasensitive) (Invitrogen), human Aβ38 (MyBioSource) (in N2A-APPswe cells) or Wako High Sensitive Aβx-42 ELISA kit (in Rat primary cortical neuron culture). The viability of the N2A-APPswe and Primary cortical neurons were determined by MTT and LDH release assays, respectively. […]

[3] = tested on: animal models of dementia; set-up: method as in PMID 19426756, PMID 16226729, PMID 17566650; settings: oral administration; cited from earlier work
[4] = tested on: Aβ40 and Aβ38 in N2A-APPswe cells; assay: Aβ40 and Aβ38 in conditioned medium of N2A-APPswe cells by ELISA; type: cell-based; settings: compared with Aβ42
Method: Aβ ELISA: Aβ concentrations in conditioned medium were assayed using ELISA kits for […]

SMILES	sAPPα levels ([1]; 100 μM)	α-CTF and β-CTF expression ([1]; 100 μM)	Aβ42 reduction (%) ([2]; 5 μM)	memory dysfunction [3]	Aβ42 reduction (%) ([2]; 10 μM)	effect on Aβ40 and Aβ38 [4]	expression of ADAM-10 [1]	expression of the β-secretase BACE1 [1]	α-secretase-cleaved CTF (C-83) and secreted APPα ([1]; 10 μM)	expression of full length APP ([1]; 18 h)	levels of β-secretase-cleaved CTF (C-99) and secreted APPβ ([1]; concentration-dependent)
C[C@H]1CC[C@@]2(OC1)O[C@H]1C[C@H]3[C@@H]4CC[C@@H]5C[C@@H](O)CC[C@]5(C)[C@H]4CC[C@]3(C)[C@H]1[C@@H]2C [SSG (1), sarsasapogenin]	marked increase	increased	25 ± 4	improve	–	–	–	–	–	–	–
C[C@H]1CC[C@@]2(OC1)O[C@H]1C[C@H]3[C@@H]4CC[C@@H]5C[C@@H](O[C@@H]6O[C@H](CO)[C@H](O)[C@H](O)[C@H]6O)CC[C@]5(C)[C@H]4CC[C@]3(C)[C@H]1[C@@H]2C [TAI (3), timosaponin A I]	–	–	–	–	28 ± 5	much smaller effect	–	–	–	–	–
C[C@H]1CC[C@@]2(OC1)O[C@H]1C[C@H]3[C@@H]4CC[C@@H]5C[C@@H](O[C@@H]6O[C@H](CO)[C@H](O)[C@H](O)[C@H]6O[C@@H]6O[C@H](CO)[C@@H](O)[C@H](O)[C@H]6O)CC[C@]5(C)[C@H]4CC[C@]3(C)[C@H]1[C@@H]2C [TAIII (2), timosaponin A III]	–	–	42 ± 9	improve	–	much smaller effect	did not alter	did not affect	increased	did not elicit a change	decreased
